Measured values taken from patent US20060069132A1, “Azolecarboxamide herbicides” (priority 2004, published 2006).

How the values were obtained:
barley cv. Boone = test: Test I safening of Compound 6 by Harmony Extra Herbicide, pre-/postemergence; format: in vivo, Hordeum vulgare
Method: This test evaluated the safening of Compound 6 on barley (Hordeum vulgare L.) cv. ‘Boone’ and wheat (Triticum aestivum L.) cv. ‘Recital’ by Harmony® Extra Herbicide, which comprises 50 wt % thifensulfuron-methyl and 25 wt % tribenuron-methyl. Barley and wheat seeds were planted in pots containing a pasteurized blend of Matapeake soil and sand. For postemergence testing the plants were grown 10 days so the barley seedlings were at the 2-leaf stage and the wheat seedlings were at the 2-3-leaf stage at time of treatment. Preemergence treatments were applied the day after the seeds were planted. Treatments were applied by spraying Compound 6 and/or […] in a non-phytotoxic solvent mixture, using flat fan nozzle and a spray volume of 280 L/ha. The treatments were triply replicated and the results subsequently averaged. The pots were placed on a greenhouse bench using a complete randomized block design except for the first replicate, which was unrandomized. The plants were grown in the greenhouse and watered as needed with a dilute nutrient solution containing 200 ppm of N. Illumination was daylight supplemented by artificial sources to maintain a photoperiod of 14 hours. The temperature was maintained at 23±2° C. during the day and 17±2° C. at night. The effects of the treatments were rated 25 days after preemergence treatment and 15 days after postemergence treatment. The plant response was visually rated in comparison to untreated controls using a scale of 0 to 100, with 0 representing no effect and 100 representing complete plant death.
Colby's Equation was used to calculate the expected additive herbicidal effect of the mixtures of Compound 6 with Harmony® Extra (i.e. a 2:1 mixture by weight of thifensulfuron-methyl and tribenuron-methyl). Colby's Equation (Colby, S. R. “Calculating Synergistic and Antagonistic Responses of Herbicide Combinations,” Weeds, 15(1), pp 20-22 (1967)) calculates the expected additive effect of herbicidal mixtures, and for two active ingredients is of the form: Pa+b=Pa+Pb−(PaPb/100) wherein • Pa+b is the percentage effect of the mixture expected from additive contribution of the individual components, • Pa is the observed percentage effect of the first active ingredient at the same use rate as in the mixture, and • Pb is the observed percentage effect of the second active ingredient at the same use rate as in the mixture.
The results and additive effects expected from Colby's Equation for the preemergence test are listed in Table I1, and the results and additive effects expected from Colby's Equation for the postemergence test are listed in Table I2.

wheat (TRZAS) = test: Test J Compounds 2 and 6 alone and in combination with other herbicides, foliage spray; format: in vivo, Triticum aestivum; design: key: 0 = no effect, 100 = complete control; conditions: applied alone
Excerpt: Colby's Equation was used to calculate the expected additive herbicidal effect of the mixtures of Compound 6 with Harmony® Extra (i.e. a 2:1 mixture by weight of thifensulfuron-methyl and tribenuron-methyl). […]
Seeds of test plants consisting of barnyardgrass (ECHCG; Echinochloa crus-galli (L.) Beauv.), blackgrass (ALOMY; Alopecurus myosuroides Huds.), Surinam grass (BRADC; Urochloa decumbens (Staph) R. D. Webster, previously named Brachiaria decumbens Stapf), cocklebur (XANST, Xanthium strumarium L.), corn (ZEAMD, Zea mays L. cv. ‘Pioneer 33G26’), large crabgrass (DIGSA, Digitaria sanguinalis (L.) Scop.), giant foxtail (SETFA, Setaria faberi Herrm.), lambsquarters (CHEAL, Chenopodium album L.), morningglory (IPOCO, Ipomoea coccinea L.), pigweed (AMARE, Amaranthus retroflexus L.), velvetleaf (ABUTH, Abutilon theophrasti Medik.) wheat (TRZAS, Triticum aestivum L. cv. ‘Recital’) and wild oat (AVEFA, Avena fatua L.) were planted in Redi-Earth® planting medium (Scotts Company, 14111 Scottslawn Road, Marysville, Ohio 43041) comprising spaghnum peat moss and vermiculite. […] Also listed in Table J are the expected effects for the mixtures calculated using Colby's Equation.

catchweed bedstraw = test: Test F pre-/postemergence herbicide test; format: in vivo, Gallium aparine
Excerpt: (§1) Seeds of plant species selected from annual blugrass (Poa annua L.), blackgrass (Alopecurus myosuroides Huds.), catchweed bedstraw (Gallium aparine L.), common chickweed (Stellaria media (L.) Vill./Cyr.), downy bromegrass (Bromus tectorum L.), green foxtail (Setaria viridis (L.) Beauv.), Italian ryegrass (Lolium multiflorum Lam.), kochia (Kochia scoparia (L.). Schrad.), lambsquarters (Chenopodium album L.), littleseed canarygrass (Phalaris minor Retz.), pigweed (Amaranthus retroflexus L.), Russian thistle (Salsola kali L. ssp. Ruthenica (Iljin) Soo), wild buckwheat (Polygonum convolvulus L.), wild mustard (Sinapis arvensis L.), wild oat (Avena fatua L.), windgrass (Apera spica-venti (L.) Beauv.), winter barley (Hordeum vulgare L.), and wheat (Triticum aestivum L.) were planted and treated preemergence with test chemicals formulated in a non-phytotoxic solvent mixture which included a surfactant.
(§2) At the same time, plants selected from these crop and weed species were treated with postemergence applications of some of the test chemicals formulated in the same manner. Plants ranged in height from 2 to 18 cm (1- to 4-leaf stage) for postemergence treatments. Treated plants and controls were maintained in a greenhouse for 12 to 14 days, after which time all species were compared to controls and visually evaluated. Plant response ratings, summarized in Table F, are based on a scale of 0 to 100 where 0 is no effect and 100 is complete control. A dash (-) response means no test result.

littleseed canarygrass = test: Test F pre-/postemergence herbicide test; format: in vivo, Phalaris minor
Excerpt: as §1, §2

CCn1nc(C(C)(C)C)cc1C(=O)Nc1cc(C(=O)N(C)C)ccc1F [Compound 6, N-[5-[(dimethylamino)carbonyl]-2-fluorophenyl]-3-(1,1-dimethylethyl)-1-ethyl-1H-pyrazole-5-carboxamide]
Barley Observed effect (barley cv. Boone; postemergence, Compound 6 16, thifensulfuron-methyl 0, tribenuron-methyl 0 g a.i./ha): 47
Barley Observed effect (barley cv. Boone; postemergence, Compound 6 31, thifensulfuron-methyl 0, tribenuron-methyl 0 g a.i./ha): 73
Barley Observed effect (barley cv. Boone; preemergence, Compound 6 16, thifensulfuron-methyl 0, tribenuron-methyl 0 g a.i./ha): 35
Barley Observed effect (barley cv. Boone; preemergence, Compound 6 31, thifensulfuron-methyl 0, tribenuron-methyl 0 g a.i./ha): 68
TRZAS Obsd. (wheat (TRZAS); 62 g a.i./ha): 15
TRZAS Obsd. (wheat (TRZAS); 125 g a.i./ha): 30

CCn1nc(C(C)(C)C)cc1C(=O)Nc1cc(C(=O)OC(C)C)c(F)cc1F [Compound 248]
Plant response rating (0-100), Galium (catchweed bedstraw; Postemergence, 31 g ai/ha): 50
Plant response rating (0-100), Galium (catchweed bedstraw; Postemergence, 62 g ai/ha): 50
Plant response rating (0-100), Galium (catchweed bedstraw; Postemergence, 125 g ai/ha): 60
Plant response rating (0-100), Galium (catchweed bedstraw; Postemergence, 250 g ai/ha): 60
Plant response rating (0-100), Galium (catchweed bedstraw; Preemergence, 31 g ai/ha): 30
Plant response rating (0-100), Galium (catchweed bedstraw; Preemergence, 62 g ai/ha): 50
Plant response rating (0-100), Galium (catchweed bedstraw; Preemergence, 125 g ai/ha): 50
Plant response rating (0-100), Galium (catchweed bedstraw; Preemergence, 250 g ai/ha): 60
Plant response rating (0-100), Canarygrass (littleseed canarygrass; Postemergence, 31 g ai/ha): 35
Plant response rating (0-100), Canarygrass (littleseed canarygrass; Postemergence, 62 g ai/ha): 40
Plant response rating (0-100), Canarygrass (littleseed canarygrass; Postemergence, 125 g ai/ha): 40
Plant response rating (0-100), Canarygrass (littleseed canarygrass; Postemergence, 250 g ai/ha): 45
Plant response rating (0-100), Canarygrass (littleseed canarygrass; Preemergence, 31 g ai/ha): 40
Plant response rating (0-100), Canarygrass (littleseed canarygrass; Preemergence, 62 g ai/ha): 45
Plant response rating (0-100), Canarygrass (littleseed canarygrass; Preemergence, 250 g ai/ha): 75
